Test system: diarrhea-predominant IBS subjects
Format: in vivo, human
Procedure: The study was performed in approximately 150 study centers. Approximately 1600 eligible subjects were to be given cilansetron 2 mg TID. At Visit 1, pre-treatment assessments were conducted. […] Subjects were to return to the study site one month later for Visit 3 (Day 31) for their first interim assessment. […] All subjects who discontinued from the study were to have the same post-study assessments required at Visit 7 performed at their early termination visit. […]
Stool specimens were analyzed at every visit for occult blood. An independent GERB had been established to provide advice on GI AEs during the course of the study.
Adverse events were assessed at Baseline, at each clinic visit, and at the end of the study (Month 12 or the early termination visit). All AEs, which occurred during the study were followed up in accordance with good medical practice until resolved or judged no longer clinically significant, or if a condition was chronic, until fully characterized. Adverse events could occur in the specified follow-up period and, regardless of the interval since the last administration of the study medication, were treated in the same manner as an AE which occurred during the treatment with study medication. Each AE was evaluated for duration, severity, seriousness, and causal relationship to the investigational drug. The action taken and the outcome were also recorded.
Specifically, subjects who were lost to follow-up and had no post-Baseline contact with the site were excluded from the Safety population. The subjects who discontinued from the study due to lost to follow-up were identified based on the information collected on the study termination CRF page.
After the pretreatment assessment at Visit 1 (Days […] to −3), subjects were to return to the study site for a Baseline assessment and start the treatment at Visit 2 (Day 1).
For the by time-interval analyses of disposition, prevalence of AEs, and of markedly abnormal and predefined changes in laboratory values, vital signs, and ECGs, the following interval windows were used:
Adverse events that were already present prior to the first dose of cilansetron study medication but increased in severity afterwards were considered as treatment-emergent.
The 5% cutoff point was based on the incidence within higher level terms.
Subjects were counted at most once for each primary system organ class and preferred term. Serious AEs that resolved prior to receiving study medication or occurred more than 30 days after the last dose of study medication were not included in the incidence tables. A listing of all SAEs is presented; SAEs with onset prior to receiving study medication or more than 30 days after discontinuation of study medication were flagged. The listing presents lower level term and preferred term of the SAE, severity, action taken, outcome, and relationship of the SAE, start and stop date of the SAE, study day of onset of the SAE, age, race, and sex.

[1] = 2 mg, Safety Population, 3008, system organ class
[2] = 2 mg, Safety Population, 3008, under Blood and Lymphatic System Disorders
[3] = 2 mg, Safety Population, 3008, under Congenital, Familial and Genetic Disorders
[4] = 2 mg, Safety Population, 3008, under Ear and Labyrinth Disorders
[5] = 2 mg, Safety Population, 3008, under Endocrine Disorders
[6] = 2 mg, Safety Population, 3008, under Eye Disorders
[7] = 2 mg, Safety Population, 3008, under Hepatobiliary Disorders
[8] = 2 mg, Safety Population, 3008, under Immune System Disorders
[9] = 2 mg, Safety Population, 3008, under Neoplasms Benign, Malignant and Unspecified

In the case of `Cc1nccn1C[C@H]1CCc2c(c3cccc4c3n2CCC4)C1=O` [cilansetron, (R)-(−)-4,5,6,8,9,10-hexahydro-10-[(2-methyl-1H-imidazol-1-yl)methyl]-11H-pyrido-[3,2,1-jk]-carbazol-11-one], the “TEAE incidence: Influenza Viral Infections” value is reported as 51 (4%) n (%), the “TEAE incidence: Scrotal Disorders NEC*” value (2 mg, Safety Population, 3008) is reported as 1 (<1%) n (%) and the “TEAE incidence: Scrotal Swelling*” value (2 mg, Safety Population, 3008) is reported as 1 (<1%) n (%). For the same molecule, the “TEAE incidence: Vaginal Haemorrhage*” value (2 mg, Safety Population, 3008) was 1 (<1%) n (%), the “TEAE incidence: Vulvovaginal Disorders NEC*” value (2 mg, Safety Population, 3008) was 1 (<1%) n (%) and the “TEAE incidence: Blood and Lymphatic System Disorders” value [1] was 13 (<1%) n (%). The “TEAE incidence: Congenital, Familial and Genetic Disorders” value [1] was 3 (<1%) n (%), the “TEAE incidence: Ear and Labyrinth Disorders” value [1] was 22 (2%) n (%) and the “TEAE incidence: Endocrine Disorders” value [1] was 7 (<1%) n (%). For the same molecule, the “TEAE incidence: Eye Disorders” value [1] was 18 (1%) n (%), the “TEAE incidence: Hepatobiliary Disorders” value [1] was 13 (<1%) n (%) and the “TEAE incidence: Immune System Disorders” value [1] was 23 (2%) n (%). The “TEAE incidence: Neoplasms Benign, Malignant and Unspecified (Incl Cysts and Polyps)” value [1] was 17 (1%) n (%), the “TEAE incidence: Pregnancy, Puerperium and Perinatal Conditions” value [1] was 2 (<1%) n (%) and the “TEAE incidence: Social Circumstances” value [1] was 3 (<1%) n (%). For the same molecule, the “TEAE incidence: Surgical and Medical Procedures” value [1] was 2 (<1%) n (%), the “TEAE incidence: Vascular Disorders” value [1] was 32 (2%) n (%) and the “TEAE incidence: Anaemia Deficiencies” value [2] was 1 (<1%) n (%). The “TEAE incidence: Anaemia NOS” value [2] was 5 (<1%) n (%), the “TEAE incidence: Anaemia Vitamin B12 Deficiency” value [2] was 1 (<1%) n (%) and the “TEAE incidence: Anaemias NEC” value [2] was 7 (<1%) n (%). The “TEAE incidence: Anisocytosis” value [2] was 1 (<1%) n (%), the “TEAE incidence: Eosinophilia” value [2] was 2 (<1%) n (%) and the “TEAE incidence: Hypochromic Anaemia” value [2] was 1 (<1%) n (%). For the same molecule, the “TEAE incidence: Leukocytoses NEC” value [2] was 4 (<1%) n (%), the “TEAE incidence: Leukocytosis” value [2] was 2 (<1%) n (%) and the “TEAE incidence: Leukopenia NOS” value [2] was 2 (<1%) n (%). For the same molecule, the “TEAE incidence: Leukopenias NEC” value [2] was 2 (<1%) n (%), the “TEAE incidence: Neutropenia” value [2] was 1 (<1%) n (%) and the “TEAE incidence: Neutropenias” value [2] was 1 (<1%) n (%). The “TEAE incidence: Neutrophilia” value [2] was 2 (<1%) n (%), the “TEAE incidence: Normochromic Normocytic Anaemia” value [2] was 1 (<1%) n (%) and the “TEAE incidence: Poikilocytosis” value [2] was 1 (<1%) n (%). The “TEAE incidence: Red Blood Cell Abnormal Findings NEC” value [2] was 1 (<1%) n (%), the “TEAE incidence: Secondary Thrombocythaemias” value [2] was 1 (<1%) n (%) and the “TEAE incidence: Thrombocythaemia” value [2] was 1 (<1%) n (%). The “TEAE incidence: Congenital Claw Toe” value [3] was 1 (<1%) n (%), the “TEAE incidence: Musculoskeletal and Connective Tissue Disorders of Limbs Congenital” value [3] was 1 (<1%) n (%) and the “TEAE incidence: Pigmented Naevus” value [3] was 2 (<1%) n (%). The “TEAE incidence: Skin and Subcutaneous Tissue Disorders Congenital NEC” value [3] was 2 (<1%) n (%), the “TEAE incidence: Ear Disorders NEC” value [4] was 3 (<1%) n (%) and the “TEAE incidence: Ear Pain” value [4] was 3 (<1%) n (%). For the same molecule, the “TEAE incidence: Hyperacusia” value [4] was 1 (<1%) n (%), the “TEAE incidence: Hyperacusis” value [4] was 1 (<1%) n (%) and the “TEAE incidence: Inner Ear Disorder NOS” value [4] was 1 (<1%) n (%). For the same molecule, the “TEAE incidence: Inner Ear Disorders NEC” value [4] was 1 (<1%) n (%), the “TEAE incidence: Inner Ear Signs and Symptoms” value [4] was 18 (1%) n (%) and the “TEAE incidence: Tinnitus” value [4] was 8 (<1%) n (%). For the same molecule, the “TEAE incidence: Vertigo” value [4] was 10 (<1%) n (%), the “TEAE incidence: Vertigo Positional” value [4] was 1 (<1%) n (%) and the “TEAE incidence: Acquired Hypothyroidism” value [5] was 3 (<1%) n (%). For the same molecule, the “TEAE incidence: Acute and Chronic Thyroiditis” value [5] was 1 (<1%) n (%), the “TEAE incidence: Goitre” value [5] was 2 (<1%) n (%) and the “TEAE incidence: Thyroid Disorders NEC” value [5] was 2 (<1%) n (%). The “TEAE incidence: Thyroid Hyperfunction Disorders” value [5] was 2 (<1%) n (%), the “TEAE incidence: Thyroid Hypofunction Disorders” value [5] was 3 (<1%) n (%) and the “TEAE incidence: Thyroid Neoplasms” value [5] was 1 (<1%) n (%). For the same molecule, the “TEAE incidence: Thyroid Nodule” value [5] was 1 (<1%) n (%), the “TEAE incidence: Thyroiditis NOS” value [5] was 1 (<1%) n (%) and the “TEAE incidence: Thyrotoxicosis” value [5] was 2 (<1%) n (%). The “TEAE incidence: Amaurosis Fugax” value [6] was 1 (<1%) n (%), the “TEAE incidence: Blindness (Excl Colour Blindness)” value [6] was 1 (<1%) n (%) and the “TEAE incidence: Cataract Unilateral” value [6] was 1 (<1%) n (%). The “TEAE incidence: Cataracts (Excl Congenital)” value [6] was 1 (<1%) n (%), the “TEAE incidence: Conjunctival Haemorrhage” value [6] was 1 (<1%) n (%) and the “TEAE incidence: Conjunctival and Corneal Bleeding and Vascular Disorders” value [6] was 1 (<1%) n (%). The “TEAE incidence: Conjunctivitis” value [6] was 1 (<1%) n (%), the “TEAE incidence: Dry Eye NOS” value [6] was 1 (<1%) n (%) and the “TEAE incidence: Eye Irritation” value [6] was 1 (<1%) n (%). For the same molecule, the “TEAE incidence: Eye Pain” value [6] was 2 (<1%) n (%), the “TEAE incidence: Eyelid Oedema” value [6] was 2 (<1%) n (%) and the “TEAE incidence: Glaucoma NOS” value [6] was 1 (<1%) n (%). The “TEAE incidence: Glaucomas (Excl Congenital)” value [6] was 1 (<1%) n (%), the “TEAE incidence: Lacrimal Disorders” value [6] was 1 (<1%) n (%) and the “TEAE incidence: Ocular Disorders NEC” value [6] was 2 (<1%) n (%). The “TEAE incidence: Ocular Sensation Disorders” value [6] was 1 (<1%) n (%), the “TEAE incidence: Partial Vision Loss” value [6] was 2 (<1%) n (%) and the “TEAE incidence: Photophobia” value [6] was 1 (<1%) n (%). The “TEAE incidence: Retinal Bleeding and Vascular Disorders (Excl Retinopathy)” value [6] was 1 (<1%) n (%), the “TEAE incidence: Retinal Detachment” value [6] was 1 (<1%) n (%) and the “TEAE incidence: Retinal Structural Change, Deposit and Degeneration” value [6] was 1 (<1%) n (%). The “TEAE incidence: Retinal Vascular Disorder NOS” value [6] was 1 (<1%) n (%), the “TEAE incidence: Retinitis NOS” value [6] was 1 (<1%) n (%) and the “TEAE incidence: Vision Abnormal NOS Exacerbated” value [6] was 1 (<1%) n (%). The “TEAE incidence: Vision Blurred” value [6] was 1 (<1%) n (%), the “TEAE incidence: Visual Disorders NEC” value [6] was 3 (<1%) n (%) and the “TEAE incidence: Visual Disturbance NOS” value [6] was 3 (<1%) n (%). For the same molecule, the “TEAE incidence: Biliary Dyskinesia” value [7] was 1 (<1%) n (%), the “TEAE incidence: Cholecystitis NOS” value [7] was 2 (<1%) n (%) and the “TEAE incidence: Cholecystitis and Cholelithiasis” value [7] was 3 (<1%) n (%). The “TEAE incidence: Cholelithiasis” value [7] was 1 (<1%) n (%), the “TEAE incidence: Cholestasis and Jaundice” value [7] was 1 (<1%) n (%) and the “TEAE incidence: Gallbladder Disorders NEC” value [7] was 1 (<1%) n (%). The “TEAE incidence: Hepatic Cyst NOS” value [7] was 1 (<1%) n (%), the “TEAE incidence: Hepatic Disorder NOS” value [7] was 2 (<1%) n (%) and the “TEAE incidence: Hepatic and Hepatobiliary Disorders NEC” value [7] was 2 (<1%) n (%). For the same molecule, the “TEAE incidence: Hepatitis NOS” value [7] was 3 (<1%) n (%), the “TEAE incidence: Hepatobiliary Neoplasms Benign” value [7] was 1 (<1%) n (%) and the “TEAE incidence: Hepatocellular Damage and Hepatitis NEC” value [7] was 5 (<1%) n (%). For the same molecule, the “TEAE incidence: Jaundice Cholestatic” value [7] was 1 (<1%) n (%), the “TEAE incidence: Liver Fatty” value [7] was 2 (<1%) n (%) and the “TEAE incidence: Allergic Conditions NEC” value [8] was 8 (<1%) n (%). For the same molecule, the “TEAE incidence: Allergies to Foods, Food Additives, Drugs and Other Chemicals” value [8] was 3 (<1%) n (%), the “TEAE incidence: Atopic Disorders” value [8] was 12 (<1%) n (%) and the “TEAE incidence: Drug Hypersensitivity” value [8] was 3 (<1%) n (%). For the same molecule, the “TEAE incidence: Hypersensitivity NOS” value [8] was 7 (<1%) n (%), the “TEAE incidence: Seasonal Allergy” value [8] was 12 (<1%) n (%) and the “TEAE incidence: Benign Ureteric Neoplasm NOS” value [9] was 1 (<1%) n (%). For the same molecule, the “TEAE incidence: Bladder Neoplasm NOS” value [9] was 1 (<1%) n (%), the “TEAE incidence: Breast Cancer NOS*” value [9] was 1 (<1%) n (%) and the “TEAE incidence: Breast and Nipple Neoplasms Malignant*” value [9] was 1 (<1%) n (%). The “TEAE incidence: Cartilage Neoplasms Benign” value [9] was 1 (<1%) n (%) and the “TEAE incidence: Enchondromatosis” value [9] was 1 (<1%) n (%).

— US20070093520A1, “Method of treatment of diarrhea-predominant irritable bowel syndrome in a subject” (priority 2005, published 2007)
